The source of these data is ChEMBL document CHEMBL6114969, “Ultra-short lipopeptides containing d-amino acid exhibiting excellent stability and antibacterial activity against gram-positive bacteria” (Eur J Med Chem, 2025).

Data set [1] relates to Staphylococcus aureus. Kind of data set: Induction of cytoplasmic membrane depolarization in methicillin-resistant Staphylococcus aureus ATCC 33591 incubated upto 20 mins by DiSC3-5 dye based analysis. Format: functional, organism-based.
Data set [2] can be described thus: Toxicity in Balb/c mouse assessed as kidney atrophy at 80 mg/kg, ip measured after 7 days. Format: organism-based. Particulars: in vivo, 168 h, time 7 day.
Data set [3] relates to Staphylococcus aureus. Description: Inhibition of gentamicin-induced drug resistance in methicillin-resistant Staphylococcus aureus ATCC 33591 at sub-MIC measured upto 15 passages. The data set is classed as functional, organism-based.
The test system of data set [4] is Staphylococcus aureus. Kind of data set: Inhibition of imipenem-induced drug resistance in methicillin-resistant Staphylococcus aureus ATCC 33591 at sub-MIC measured upto 15 passages. The data set is classed as functional, organism-based.
Data set [5] can be described thus: Toxicity in Balb/c mouse assessed as inflammatory cell infiltration in liver at 80 mg/kg, ip measured after 7 days by H and E staining based analysis. The data set is classed as organism-based. Conditions: in vivo, 168 h, time 7 day.
Data set [6] has as its system Staphylococcus aureus. Description: Antibacterial activity against methicillin-resistant Staphylococcus aureus ATCC 33591 infected in Balb/c mouse model of skin wound infection assessed as reduction in keratosis in wound surface at 10 mg/kg, ip administered thrice at 1, 24 and 48 hrs post-infection measured after 14 days in presence of polymyxin B by IHC analysis. Particulars: time 14.0 day. The data set is classed as functional, organism-based.

Data set [7] deals with Staphylococcus aureus. Description: Antibacterial activity against methicillin-resistant Staphylococcus aureus ATCC 33591 infected in Balb/c mouse model of acute systemic infection assessed as reduction in bleeding in kidney at 10 mg/kg, ip measured after 5 days by H and E staining based analysis. The data set is classed as functional, organism-based. Conditions: time 5.0 day.

Activity calls are given as the source filed them. The rule behind the calls is not given here.

In the case of `CCCCCCCCCCCC(=O)N[C@H](CCCNC(=N)N)C(=O)N[C@H](CCCNC(=N)N)C(=O)N[C@H](Cc1c[nH]c2ccccc12)C(=O)O`, the Activity entry in data set [1] was “Dose-dependent-effect; Compound Activity Was Slightly Weaker Than Triton X-100”; in data set [2] it was “Toxic”; in data set [5] it was “Toxic”. Besides, the inhibition entry in data set [3] and in data set [4] was “Active” in each case. For the same compound, the outcome in data set [6] and in data set [7] was Active.
